Test results from US7271147B2, “Antibiotics, tripropeptins and process for producing the same” (Zaidan Hojin Biseibutsu Kagaku Kenkyu Kai, priority 2000, dated 2007).
Values after ≈ are worked out from the molar mass of the structure shown. Like-named read-outs stand apart in the source and are kept apart here. Starred links: 1 amine or outer side, 2 acyl side, 3 side chain; linkers in the order of their positions; H or OH if unused. Positions of bridges follow the written chain, without caps; N, C: chain ends. Non-standard residues stand in square brackets, D forms with d. Residues, ends and D or L forms follow the SMILES beside them. ξ: configuration not given here. X4 = CC(C)CCCCCCCCCCC(CC(=O)[*:1])O[*:2]; X2 = CC(C)CCCCCCCCCC(CC(=O)[*:1])O[*:2]; X6 = CC(C)CCCCCCCCC(CC(=O)[*:1])O[*:2]; X5 = CC(C)CCCCCCCC(CC(=O)[*:1])O[*:2]; X3 = CC(C)CCCCCCC(CC(=O)[*:1])O[*:2]; ξAsp(3ξ-OH) = NC(C(=O)O)C(O)C(=O)O; X1 = O=C(C1C(O)CCN1[*:1])[*:2]

Key:
[1] = test system: Staphylococcus aureus TY-03456 (methicillin-resistant); test: Minimum growth inhibitory concentration, agar serial dilution; format: cell-based; settings: read-out: Minimum growth inhibitory concentration
[2] = test system: Enterococcus faecium NCTC 12202 (vancomycin-resistant); test: as above; format: cell-based; settings: NCTC12202, 5% sheep blood-supplemented Mueller-Hinton agar
Shigella sonnei JS11746 = test: as above; format: cell-based; settings: Mueller-Hinton agar
Experimental: Minimum growth inhibitory concentrations (μg/ml) of tripropeptin Z against a variety of microorganisms were measured on a Mueller-Hinton agar medium (manufactured by Difco Laboratories) or on a 5% sheep blood-supplemented Mueller-Hinton agar medium (manufactured by Difco Laboratories) for Enterococcus, by a serial dilution method according to the standard method as provided by Japanese Society of Chemotherapy.
Minimum growth inhibitory concentrations (μg/ml) of tripropeptin A against a variety of microorganisms were measured on a Mueller-Hinton agar medium (manufactured by Difco Laboratories) or on a 5% sheep blood-supplemented Mueller-Hinton agar medium (manufactured by Difco Laboratories) for Enterococcus, by a serial dilution method according to the standard method as provided by Japanese Society of Chemotherapy.
Minimum growth inhibitory concentrations (μg/ml) of tripropeptin B against a variety of microorganisms were measured on a Mueller-Hinton agar medium (manufactured by Difco Laboratories) or on a 5% sheep blood-supplemented Mueller-Hinton agar medium (manufactured by Difco Laboratories) for Enterococcus, by a serial dilution method according to the standard method as provided by Japanese Society of Chemotherapy.
Minimum growth inhibitory concentrations (μg/ml) of tripropeptin C against a variety of microorganisms were measured on a Mueller-Hinton agar medium (manufactured by Difco Laboratories) or on a 5% sheep blood-supplemented Mueller-Hinton agar medium (manufactured by Difco Laboratories) for Enterococcus, by a serial dilution method according to the standard method as provided by Japanese Society of Chemotherapy.
Minimum growth inhibitory concentrations (μg/ml) of tripropeptin D against a variety of microorganisms were measured on a Mueller-Hinton agar medium (manufactured by Difco Laboratories) or on a 5% sheep blood-supplemented Mueller-Hinton agar medium (manufactured by Difco Laboratories) for Enterococcus, by a serial dilution method according to the standard method as provided by Japanese Society of Chemotherapy.

[3] = test system: Staphylococcus aureus MS16497 (methicillin-resistant); test: as above; format: cell-based; settings: Mueller-Hinton agar
[4] = test system: Enterococcus faecalis NCTC 12203 (vancomycin-resistant); test: as above; format: cell-based; settings: NCTC12203, 5% sheep blood-supplemented Mueller-Hinton agar
[5] = test system: Staphylococcus aureus MS16526 (methicillin-resistant); test: as above; format: cell-based; settings: Mueller-Hinton agar
Bacillus subtilis PCI219 = test: as above; format: cell-based; settings: Mueller-Hinton agar
[6] = test system: Staphylococcus aureus Smith; test: as above; format: cell-based; settings: Mueller-Hinton agar
[7] = test system: Staphylococcus aureus TY-03454 (methicillin-resistant); test: as above; format: cell-based; settings: Mueller-Hinton agar
[8] = test system: Staphylococcus aureus TY-04282 (methicillin-resistant); test: as above; format: cell-based; settings: Mueller-Hinton agar
Micrococcus luteus FDA16 = test: as above; format: cell-based; settings: Mueller-Hinton agar
[9] = test system: Staphylococcus aureus MS9610 (multi-drug-resistant); test: as above; format: cell-based; settings: Mueller-Hinton agar
[10] = test system: Staphylococcus aureus MS16460 (methicillin-resistant); test: as above; format: cell-based; settings: read-out: Minimum growth inhibitory concentration
[11] = test system: Klebsiella pneumoniae PCI602; test: as above; format: cell-based; settings: Mueller-Hinton agar
[12] = test system: Corynebacterium bovis 1810; test: as above; format: cell-based; settings: Mueller-Hinton agar
[13] = test system: Staphylococcus aureus TY-00933 (methicillin-resistant); test: as above; format: cell-based; settings: read-out: Minimum growth inhibitory concentration
[14] = test system: Bacillus cereus ATCC10702; test: as above; format: cell-based
[15] = test system: Staphylococcus aureus FDA209P; test: as above; format: cell-based; settings: Mueller-Hinton agar
[16] = test system: Enterococcus faecium NCTC 12204 (vancomycin-resistant); test: as above; format: cell-based; settings: NCTC12204, 5% sheep blood-supplemented Mueller-Hinton agar
[17] = test system: Enterococcus faecium JCM5804; test: as above; format: cell-based; settings: 5% sheep blood-supplemented Mueller-Hinton agar
Bacillus anthracis = test: microbe, parasite or virus in culture; format: cell-based; settings: read-out: Minimum growth inhibitory concentration
[18] = test system: Enterococcus faecalis NCTC 12201 (vancomycin-resistant); test: Minimum growth inhibitory concentration, agar serial dilution; format: cell-based; settings: NCTC12201, 5% sheep blood-supplemented Mueller-Hinton agar
Salmonella typhi T-63 = test: as above; format: cell-based; settings: Salmonella enterica, Mueller-Hinton agar
[19] = test system: Enterococcus faecalis JCM5803; test: as above; format: cell-based; settings: 5% sheep blood-supplemented Mueller-Hinton agar
[20] = test system: mice (ICR type, 4 weeks-aged, male); settings: mouse, in vivo, iv, 300 mg/kg
From the text: However, an optimal dose of a tripropeptin can be decided by experts through suitable preliminary tests.

[21] = Staphylococcus aureus TY-03456 (methicillin-resistant), Mueller-Hinton agar
[22] = Staphylococcus aureus MS16460 (methicillin-resistant), Mueller-Hinton agar
[23] = Staphylococcus aureus TY-00933 (methicillin-resistant), Mueller-Hinton agar
[24] = Bacillus cereus ATCC10702, Mueller-Hinton agar, read-out: Minimum growth inhibitory concentration
[25] = Bacillus cereus, ATCC10702, read-out: Minimum growth inhibitory concentration

SMILES	MIC [2] [µg/mL]	MIC (Shigella sonnei JS11746) [µg/mL]	MIC [3] [µg/mL]	MIC [4] [µg/mL]	MIC [5] [µg/mL]	MIC (Bacillus subtilis PCI219) [µg/mL]	MIC [6] [µg/mL]	MIC [7] [µg/mL]	MIC [8] [µg/mL]	MIC (Micrococcus luteus FDA16) [µg/mL]	MIC [9] [µg/mL]	MIC [11] [µg/mL]	MIC [12] [µg/mL]	MIC [15] [µg/mL]	MIC [16] [µg/mL]	MIC [17] [µg/mL]	MIC (Bacillus anthracis) [µg/mL]	MIC [18] [µg/mL]	MIC (Salmonella typhi T-63) [µg/mL]	MIC [19] [µg/mL]	further results
CC(C)CCCCCCCC1CC(=O)NC(C(C)O)C(=O)N2CCCC2C(=O)N2CCCC2C(=O)NC(CCCNC(=N)N)C(=O)NC(C(O)C(=O)O)C(=O)NC(CO)C(=O)N2CCC(O)C2C(=O)NC(C(O)C(=O)O)C(=O)O1 (stereo not shown) [Tripropeptin A] (TPPR[ξAsp(3ξ-OH)]S[X1][ξAsp(3ξ-OH)]; linker N-C via X5; configuration not given here)	50 (≈ 44.4 µM)	> 100	6.25 (≈ 5.55 µM)	50 (≈ 44.4 µM)	3.13 (≈ 2.78 µM)	3.13 (≈ 2.78 µM)	0.78 (≈ 0.693 µM)	6.25 (≈ 5.55 µM)	6.25 (≈ 5.55 µM)	< 0.39	6.25 (≈ 5.55 µM)	> 50	1.56 (≈ 1.39 µM)	1.56 (≈ 1.39 µM)	50 (≈ 44.4 µM)	50 (≈ 44.4 µM)	25 (≈ 22.2 µM)	50 (≈ 44.4 µM)	> 50	50 (≈ 44.4 µM)	MIC [1, 21]: 6.25 µg/mL (≈ 5.55 µM); MIC [10, 22]: 6.25 µg/mL (≈ 5.55 µM); MIC [13, 23]: 6.25 µg/mL (≈ 5.55 µM); MIC [14, 24]: 12.3 µg/mL (≈ 10.9 µM)
CC(C)CCCCCCCCC1CC(=O)NC(C(C)O)C(=O)N2CCCC2C(=O)N2CCCC2C(=O)NC(CCCNC(=N)N)C(=O)NC(C(O)C(=O)O)C(=O)NC(CO)C(=O)N2CCC(O)C2C(=O)NC(C(O)C(=O)O)C(=O)O1 (stereo not shown) [Tripropeptin B] (TPPR[ξAsp(3ξ-OH)]S[X1][ξAsp(3ξ-OH)]; linker N-C via X6; configuration not given here)	25 (≈ 21.9 µM)	> 100	3.13 (≈ 2.74 µM)	50 (≈ 43.8 µM)	3.13 (≈ 2.74 µM)	1.56 (≈ 1.37 µM)	1.56 (≈ 1.37 µM)	3.13 (≈ 2.74 µM)	3.13 (≈ 2.74 µM)	0.2 (≈ 0.175 µM)	3.13 (≈ 2.74 µM)	> 100	0.78 (≈ 0.684 µM)	1.56 (≈ 1.37 µM)	25 (≈ 21.9 µM)	25 (≈ 21.9 µM)	6.25 (≈ 5.48 µM)	12.5 (≈ 11 µM)	> 100	25 (≈ 21.9 µM)	MIC [1, 21]: 3.13 µg/mL (≈ 2.74 µM); MIC ([10]; Staphylococcus aureus): 6.25 µg/mL (≈ 5.48 µM); MIC [13, 23]: 3.13 µg/mL (≈ 2.74 µM); MIC [14, 24]: > 100 µg/mL
CC(C)CCCCCCCCCC1CC(=O)NC(C(C)O)C(=O)N2CCCC2C(=O)N2CCCC2C(=O)NC(CCCNC(=N)N)C(=O)NC(C(O)C(=O)O)C(=O)NC(CO)C(=O)N2CCC(O)C2C(=O)NC(C(O)C(=O)O)C(=O)O1 (stereo not shown) [Tripropeptin C] (TPPR[ξAsp(3ξ-OH)]S[X1][ξAsp(3ξ-OH)]; linker N-C via X2; configuration not given here)	12.5 (≈ 10.8 µM)	> 100	1.56 (≈ 1.35 µM)	25 (≈ 21.7 µM)	1.56 (≈ 1.35 µM)	1.56 (≈ 1.35 µM)	1.56 (≈ 1.35 µM)	1.56 (≈ 1.35 µM)	1.56 (≈ 1.35 µM)	0.2 (≈ 0.173 µM)	1.56 (≈ 1.35 µM)	> 100	0.39 (≈ 0.338 µM)	1.56 (≈ 1.35 µM)	12.5 (≈ 10.8 µM)	12.5 (≈ 10.8 µM)	3.13 (≈ 2.71 µM)	6.25 (≈ 5.41 µM)	> 100	12.5 (≈ 10.8 µM)	MIC ([1]; Staphylococcus aureus): 3.13 µg/mL (≈ 2.71 µM); MIC ([10]; Staphylococcus aureus): 3.13 µg/mL (≈ 2.71 µM); MIC ([13]; Staphylococcus aureus): 3.13 µg/mL (≈ 2.71 µM); MIC [14, 25]: 3.13 µg/mL (≈ 2.71 µM); Toxicity [20]: did not exhibit any toxicity
CC(C)CCCCCCCCCCC1CC(=O)NC(C(C)O)C(=O)N2CCCC2C(=O)N2CCCC2C(=O)NC(CCCNC(=N)N)C(=O)NC(C(O)C(=O)O)C(=O)NC(CO)C(=O)N2CCC(O)C2C(=O)NC(C(O)C(=O)O)C(=O)O1 (stereo not shown) [Tripropeptin D] (TPPR[ξAsp(3ξ-OH)]S[X1][ξAsp(3ξ-OH)]; linker N-C via X4; configuration not given here)	6.25 (≈ 5.35 µM)	> 100	0.78 (≈ 0.668 µM)	6.25 (≈ 5.35 µM)	0.78 (≈ 0.668 µM)	0.78 (≈ 0.668 µM)	0.39 (≈ 0.334 µM)	0.78 (≈ 0.668 µM)	0.78 (≈ 0.668 µM)	0.2 (≈ 0.171 µM)	0.78 (≈ 0.668 µM)	> 100	0.2 (≈ 0.171 µM)	0.39 (≈ 0.334 µM)	6.25 (≈ 5.35 µM)	6.25 (≈ 5.35 µM)	1.56 (≈ 1.34 µM)	3.13 (≈ 2.68 µM)	> 100	3.13 (≈ 2.68 µM)	MIC [1, 21]: 0.78 µg/mL (≈ 0.668 µM); MIC ([10]; Staphylococcus aureus): 1.56 µg/mL (≈ 1.34 µM); MIC [13, 23]: 0.78 µg/mL (≈ 0.668 µM); MIC [14, 25]: 1.56 µg/mL (≈ 1.34 µM)
CC(C)CCCCCCC1CC(=O)NC(C(C)O)C(=O)N2CCCC2C(=O)N2CCCC2C(=O)NC(CCCNC(=N)N)C(=O)NC(C(O)C(=O)O)C(=O)NC(CO)C(=O)N2CCC(O)C2C(=O)NC(C(O)C(=O)O)C(=O)O1 (stereo not shown) [Tripropeptin Z] (TPPR[ξAsp(3ξ-OH)]S[X1][ξAsp(3ξ-OH)]; linker N-C via X3; configuration not given here)	> 100	> 100	25 (≈ 22.5 µM)	> 100	25 (≈ 22.5 µM)	25 (≈ 22.5 µM)	6.25 (≈ 5.62 µM)	25 (≈ 22.5 µM)	25 (≈ 22.5 µM)	< 0.39	25 (≈ 22.5 µM)	> 50	6.25 (≈ 5.62 µM)	12.5 (≈ 11.2 µM)	> 100	> 100	100 (≈ 89.9 µM)	100 (≈ 89.9 µM)	> 50	100 (≈ 89.9 µM)	MIC [1, 21]: 25 µg/mL (≈ 22.5 µM); MIC [10, 22]: 50 µg/mL (≈ 45 µM); MIC [13, 23]: 25 µg/mL (≈ 22.5 µM); MIC [14, 24]: > 50 µg/mL
